Reference: patent publication US8895599B2, “Lipoprotein lipase-activating compositions comprising benzene derivates” (Otsuka Pharmaceutical Factory, Inc., priority 2008, dated 2014)

Experiments:
[1] = Anti-obesity test using AKR mice (high-fat feed); assay type: in vivo; settings: 1 mg per gram of feed in high-fat feed, 7 weeks, AKR/J mice, relative to high-fat feed control group
From the text: Anti-Obesity Test Using AKR Mice
Furthermore, this test enables the evaluation of therapeutic effects on diabetes. That is, it is reported that insulinemia can be observed in AKR/J mice when they are fed with a high-fat diet (see Am. J. Physiol. 266 (5 Pt 2), May 1994: R1423-8). It is thus known that insulinemia is strongly associated with diabetes (see, for example, J. Cardiovasc. Nurs. 16 (2), January 2002: 17-23). Therefore, this test can verify the therapeutic effects of the compounds of the present invention, used as test compounds, on diabetes.
For rat feed, powdered CRF-1 (Charles River Formula 1, manufactured by Oriental Yeast, Co., Ltd.) was used as normal feed. As high-fat feed, that prepared by blending CRF-1 with 18% safflower oil (Oriental Yeast, Co., Ltd.) was used.
Test substances were blended with the high-fat feed in an amount of 1 mg per gram of CRF-1.
AKR/J mice (from CLEA Japan, Inc.) were purchased at the age of 4 weeks. They were roughly divided into 2 groups according to body weight when the mice reached 5 weeks old. During this period, all mice were given the normal feed.
Subsequently, the mice of one group (8 mice) continued to be fed with the normal feed (normal feed group). The mice of the other group (8×(the number of the test substances+1) mice) were given the high-fat feed (high-fat feed group).
The body weight of the mice of each group was measured daily. […] These mice were further reared for 7 weeks (“test substances+high-fat feed groups”; n=8 per type of test substance). Specifically, the administration of the test substances was continued for 7 weeks. A group of mice to which high-fat feed containing no test substance was continued to be given was used as a control (high-fat feed control group; n=8).
Four hours after the feeding on the last day of the 7-week test (the last day of the test), the body weight of the mice of the “test substances+high fat feed groups” was measured. Blood was collected from the abdominal aorta of the mice using a heparinized syringe, and the leptin and insulin levels in the plasma were measured using an Elisa kit (produced by Morinaga). The mice of the other groups (normal feed group and high-fat feed control group) were reared till the last day of the test as above, and 4 hours after the last feeding on the last day of the test the measurements were performed according to the same procedures.
The average values of the test results (body weight, leptin level, and insulin level) of the test substances+high-fat feed groups to which the compounds prepared in Examples (Examples 10 and 58) were used as test substances (hereinbelow referred to as the “Example Compound 10-mixed high-fat feed group” and “Example Compound 58-mixed high-fat feed group”) were compared with the respective average values (standard values) of the results obtained from the mice of the high-fat control group to obtain the variations (differences). The differences were expressed as percentages in relation to the standard values. The values thus calculated were referred to as “weight change (%)”, “leptin level change (%)”, and “insulin level change (%)”. In the table below, the symbols “−” (minus) indicate that the differences are negative relative to the standard values.

[2] = Therapeutical effect on olive oil-induced triglyceride hyperlipidemia models; assay type: in vivo; settings: once a day for one week, SD rats, 2 h after olive oil
Method: Test of Therapeutical Effect on Olive Oil-Induced Triglyceride Hyperlipidemia Models
To conduct this test, 6-week-old SD rats (purchased from Charles River Japan) were used.
According to the body weight of the test rats when they were 5 weeks old, the test rats were divided into test groups and a control group with 6 rats per group.
A predetermined amount of each compound prepared in the Examples was measured and placed in an agate mortar. While 5% aqueous gum arabic solution was gradually introduced to the mortar, the compound was uniformly ground and suspended. Test samples were prepared by further adding 5% aqueous gum arabic solution gradually. Subsequently, these test samples were subjected to ultrasonic washing for 10 minutes to homogenize. Test samples were prepared as and when necessary.
The rats of the test groups were orally administered with the compounds of the invention such that rats received the compounds in an amount of 10, 30, or 100 mg/kg. The compounds of the invention were formulated as 5% gum arabic suspensions as described above.
The rats of the control group were orally administered with 5% aqueous gum arabic solution (not containing the compounds of the invention) in an amount of 5 ml/kg body weight. Administration was conducted once a day continuously for one week at a specific time of day after the rats reached 6 weeks of age. This test was performed under non-fasting conditions (rats had free access to feed and water), and the rats were fasted after the final administration of the compounds or 5% aqueous gum arabic solution.
Two hours after the final administration, olive oil was orally administered to the rats from both groups in an amount of 3 ml/kg body weight.
Two hours after the olive oil administration, blood was collected from the abdominal aorta of the rats of the respective groups using a heparinized syringe. The plasma was centrifugally separated from the blood at a temperature of 4° C., and the triglyceride level of the plasma was measured. A Hitachi 7170 automatic analyzer was used as the measuring instrument. Using the values measured from the test groups and control group, the decrease (%) in plasma triglyceride level was calculated according to the following equation: Decrease (%) in plasma triglyceride concentration=(1−E/C)×100 wherein E represents the average plasma triglyceride level in each test group; and C represents the average plasma triglyceride level in the control group.

[3] = Anti-obesity test using Zucker fatty rats; assay type: in vivo; settings: 100 mg/kg oral, once a day over 4 weeks, relative to control group
From the text: Anti-Obesity Test Using Zucker Fatty Rats
Zucker fatty rats are obese rats discovered by Zucker et al., in 1961 as mutants among 13 M rats, which are a hybrid between 13C and M rats. These rats (fa/fa) start to appear distinctly obese from normal broods around the age of 3 weeks. As they age, the weight difference between the fatty rats and normal rats increases. Zucker fatty rats are currently kept by a variety of organizations as simple obesity models, and are readily obtainable.
This test was performed using this rat model to evaluate the anti-obesity action of the compounds of the invention. The preparation method of test samples and the test procedures are described below:
The test samples were prepared in the same manner as in Test Example 2.
Zucker fatty rats and lean rats (both from Charles River Japan) were purchased at the age of 5 weeks. They were divided into groups (10 rats per group) according to body weight when they reached 6 weeks old. After acclimatization, the administration of test samples was initiated when the rats reached 8 weeks old. Test samples were orally administered using an oral gavage so that the compounds of the invention contained in the test samples were given in an amount of 100 mg/kg body weight (test sample dosage: 5 ml/kg body weight). The test samples were administered once a day over 4 weeks at a specific time of day.
As a control, a group of rats were administered with the same amount of 5% aqueous gum arabic solution (5 ml/kg body weight) instead of the test samples.
The rats of all groups were weighed on the last day of administration. The average body weight of the rats of each test group was compared with the average body weight (standard weight) of the rats of the control group to obtain the weight variations (differences). The weight differences were expressed as percentages in relation to the standard weight. The values thus calculated are referred to as “weight change %”. When a weight difference is negative relative to the standard weight, weight change % is shown with “−” (minus).
During the test period, the rats of the respective groups had free access to rat feed (“CRF-1”, manufactured by Oriental Yeast, Co., Ltd.) and water (tap water).

SMILES: COc1cc(-c2cn3ccccc3n2)ccc1OCc1ccc(Br)cc1F [Example 58]
- Weight Change (%) [1]: −10%
- Insulin level change (%) ([1]; plasma): −12%
- Leptin level change (%) ([1]; plasma): −55%
- Decrease in plasma triglyceride level (%) ([2]; 10 mg/kg oral): 31%
- Decrease in plasma triglyceride level (%) ([2]; 30 mg/kg oral): 66%
- Decrease in plasma triglyceride level (%) ([2]; 100 mg/kg oral): 79%
- Weight Change (%) [3]: −19%
- melting point: 111 to 113 °C
